The record followed here is ChEMBL document CHEMBL4808204, “Discovery of non-proteinogenic amino acids inhibiting biofilm formation by S. aureus and methicillin-resistant S. aureus” (Bioorg Med Chem Lett, 2021).

Activity calls are given as the source filed them. The calls are words filed in the database; no cut-off is given here.

The subject of data set [1] is Staphylococcus aureus. The experiment in a line: Antibiofilm activity against Staphylococcus aureus assessed as biofilm formation at 100 uM measured by crystal violet staining based microplate reader assay. The class given is functional.
For data set [2], the system named is Staphylococcus aureus. The experiment in a line: Antibacterial activity in Staphylococcus aureus assessed as bacterial growth rate at 100 uM measured by UV absorbance based analysis. The class given is functional.
Data set [3] deals with Staphylococcus aureus. The experiment in a line: Antibiofilm activity against Staphylococcus aureus assessed as inhibition of biofilm formation at 66 uM. The class given is functional.
For data set [4], the system named is Pseudomonas aeruginosa. The experiment in a line: Antibiofilm activity against Pseudomonas aeruginosa assessed as inhibition of biofilm formation at 100 uM. The class given is functional.
Another data set concerns Acinetobacter baumannii. The experiment in a line: Antibiofilm activity against Acinetobacter baumannii assessed as inhibition of biofilm formation at 1 to 100 uM by UV absorbance based analysis. The data set is classed as functional, organism-based. The following applies: dose 1-100 µM.
Data set [5] has as its system Staphylococcus aureus. The experiment in a line: Antibiofilm activity against Staphylococcus aureus assessed as inhibition of biofilm formation at 10 uM measured by crystal violet staining based microplate reader assay. The class given is functional.
A further data set relates to Listeria monocytogenes. The experiment in a line: Antibiofilm activity against Listeria monocytogenes assessed as inhibition of biofilm formation by UV absorbance based analysis. The class given is functional, organism-based. To be noted: dose 1-100 µM.
The test system of data set [6] is Pseudomonas aeruginosa. The experiment in a line: Antibiofilm activity against Pseudomonas aeruginosa assessed as inhibition of biofilm formation at 1 to 100 uM by UV absorbance based analysis. The data set is classed as functional, organism-based. The following applies: dose 1-100 µM.
The next data set relates to Streptococcus mutans. The experiment in a line: Antibiofilm activity against Streptococcus mutans assessed as inhibition of biofilm formation at 1 to 100 uM by UV absorbance based analysis. The class given is functional, organism-based. To be noted: dose 1-100 µM.
The subject of data set [7] is Pseudomonas aeruginosa. The experiment in a line: Antibiofilm activity against Pseudomonas aeruginosa assessed as inhibition of biofilm formation at 100 uM measured by crystal violet staining based microplate reader assay. The class given is functional, organism-based.
The test system of data set [8] is Staphylococcus epidermidis. The experiment in a line: Antibiofilm activity against Staphylococcus epidermidis assessed as inhibition of biofilm formation at 1 to 100 uM by UV absorbance based analysis. The class given is functional, organism-based. To be noted: dose 1-100 µM.
A further data set deals with HeLa. The experiment in a line: Cytotoxicity against human HeLa cells at 1 to 100 uM by WST8 assay. The data set is classed as cell-based. To be noted: dose 1-100 µM.
For data set [9], the system named is Staphylococcus aureus. The experiment in a line: Antibiofilm activity against methicillin-resistant Staphylococcus aureus assessed as inhibition of biofilm formation by UV absorbance based analysis. The data set is classed as functional, organism-based. To be noted: dose 1-100 µM.
For data set [10], the system named is Staphylococcus aureus. The experiment in a line: Antibiofilm activity against Staphylococcus aureus assessed as inhibition of attachment of biofilm on the bacterial surface at 1 to 100 uM. The class given is functional, organism-based. The following applies: dose 1-100 µM.
The subject of another data set is Escherichia coli. The experiment in a line: Antibiofilm activity against Escherichia coli assessed as inhibition of biofilm formation at 1 to 100 uM by UV absorbance based analysis. The data set is classed as functional, organism-based. The following applies: dose 1-100 µM.
Data set [11] has as its system Staphylococcus aureus. The experiment in a line: Antibiofilm activity against Staphylococcus aureus assessed as inhibition of biofilm formation by UV absorbance based analysis. The data set is classed as functional, organism-based. To be noted: dose 1-100 µM.
The test system of data set [12] is Staphylococcus aureus. The experiment in a line: Antibiofilm activity against Staphylococcus aureus assessed as inhibition of biofilm formation at 500 uM. The data set is classed as functional.
Data set [13] concerns Staphylococcus aureus. The experiment in a line: Antibiofilm activity against Staphylococcus aureus assessed as inhibition of biofilm formation at 60 uM. The class given is functional.
Data set [14] concerns Staphylococcus aureus. The experiment in a line: Antibiofilm activity against Staphylococcus aureus assessed as inhibition of biofilm formation at 100 uM. The class given is functional.

Take `NC(Cc1cc(I)c(Oc2ccc(O)c(I)c2)c(I)c1)C(=O)[O-].[Na+]` (configuration not stated): in the data set with Staphylococcus aureus [1], the Biofilm formation was determined as 2%. For the same compound, the Activity with Staphylococcus aureus [2] is on record as 18%.
As to `O=c1c(O)c(-c2ccc(O)c(O)c2)oc2cc(O)cc(O)c12` [QUERCETIN], in the data set on Staphylococcus aureus [3], the inhibition – broadly, the share of the control response that was lost under treatment – at 66 µM is above 70%. The inhibition at 100 µM with Pseudomonas aeruginosa [4] is above 70%.
As to `OCc1ccc(O)c(O)c1`, in the data set with Staphylococcus aureus [1], the Biofilm formation was found to be 107%. For the same compound, the Activity with Staphylococcus aureus [2] was 104%.
Taken in the same sequence, the figures for `NC(Cc1ccc(Oc2ccc(O)cc2)cc1)C(=O)O` (configuration not stated) were 15% and 106%.
Consider `NC(C(=O)O)C(O)c1ccc(O)c(O)c1` (configuration not stated), for which the outcome (in the data set with Acinetobacter baumannii; in the data set with Pseudomonas aeruginosa [6]; in the data set on Streptococcus mutans; in the data set on Pseudomonas aeruginosa [7]; in [8]; with Staphylococcus aureus [10]) was inactive. In the data set on Escherichia coli, the result was inactive. In addition, in the data set with Staphylococcus aureus [5], the inhibition at 10 µM amounted to 53%. The Activity entry in the data set with Listeria monocytogenes was “Dose-Dependent Effect”; in the data set on Staphylococcus aureus [2], 104%; with HeLa, “Non-Toxic”; in the data set with Staphylococcus aureus [9], “Dose-Dependent Effect”; in the data set with Staphylococcus aureus [11] it was “Dose-Dependent Effect”. In addition, the Biofilm formation in the data set with Staphylococcus aureus [1] is reported as 12%.
Take `N[C@@H](Cc1ccc(F)c(F)c1)C(=O)O`: the Biofilm formation in the data set with Staphylococcus aureus [1] amounted to 31%. Further, the Activity in the data set on Staphylococcus aureus [2] turned out to be 145%.
Turning to `O=C(O)[C@H]1CCCN1` [D-PROLINE], in the data set on Staphylococcus aureus [12], the inhibition at 500 µM was above 70%.
`N[C@H](CO)C(=O)O` [(D)-SERINE]: in the data set on Staphylococcus aureus [1], the Biofilm formation was determined as 83%. The Activity in the data set on Staphylococcus aureus [2] is listed as 85%.
Taken in the same sequence, the figures for `CCCCCCCCCCCCCC(=O)NCC(=O)O` were 4% and 38%.
The like results for `Oc1ccccc1O` [CATECHOL] were, in that order, 84% and 106%.
The like results for `NC(Cc1cc(I)c(O)c(I)c1)C(=O)O` (configuration not stated) were, in that order, 5% and 26%.
Take `N[C@@H](Cc1ccc(O)c([N+](=O)[O-])c1)C(=O)O`: the Biofilm formation in the data set on Staphylococcus aureus [1] turned out to be 16%. Further, in the data set on Staphylococcus aureus [2], the Activity turned out to be 80%.
Taken in the same sequence, the figures for `N[C@@H](Cc1ccc(O)c(O)c1)C(=O)O` [LEVODOPA] were 32% and 84%.
As to `CC(C)c1ccc2c(c1)CC[C@H]1[C@](C)(C(=O)O)CCC[C@]21C` [DEHYDROABIETIC ACID], the inhibition at 60 µM with Staphylococcus aureus [13] came out at 90%.
With `N[C@H](Cc1ccc(O)cc1)C(=O)O`, the inhibition at 100 µM in the data set with Staphylococcus aureus [14] was above 70%. Further, the Biofilm formation in the data set with Staphylococcus aureus [1] came to 85%. Besides, the Activity with Staphylococcus aureus [2] amounted to 119%.
With `CNC[C@H](O)c1ccc(O)c(O)c1` [EPINEPHRINE], the Activity in the data set with Staphylococcus aureus [1] stood at 77%; in the data set on Staphylococcus aureus [2] it was 79%.
Turning to `NC(Cc1cc(Br)c(O)c(Br)c1)C(=O)O` (configuration not stated), in the data set on Staphylococcus aureus [1], the Biofilm formation came out at 6%. Moreover, in the data set on Staphylococcus aureus [2], the Activity turned out to be 72%.
`NCCc1ccc(O)c(O)c1` [DOPAMINE]: the Activity with Staphylococcus aureus [1] is 79%; with Staphylococcus aureus [2], 98%.
On to `NC(C(=O)O)C(O)c1ccccc1` (configuration not stated), for which the Biofilm formation with Staphylococcus aureus [1] is listed as 101%. Also, the Activity in the data set on Staphylococcus aureus [2] was found to be 97%.
For `N[C@H](Cc1ccccc1)C(=O)O` [D-PHENYLALANINE], the inhibition at 500 µM in the data set with Staphylococcus aureus [12] was above 70%.
In the case of `N[C@@H](Cc1ccc(Cl)c(Cl)c1)C(=O)O`, the Biofilm formation with Staphylococcus aureus [1] came out at 46%. Moreover, the Activity with Staphylococcus aureus [2] came out at 117%.
